Reference: ChEMBL document CHEMBL3044689, “Synthesis and Rice-Blast Control Activity of Sulfonylamidines” (1992)

Key:
Type in all cases: functional
Pyricularia oryzae [1] = assay: Antifungal activity against Magnaporthe oryzae infected on compound treated rice seedlings at 125 ppm incubated for 24 hr in moist chamber followed by incubation for 5 days in greenhouse conditions
Pyricularia oryzae [2] = assay: Antifungal activity against Magnaporthe oryzae infected on compound treated rice seedlings at 7.8 ppm incubated for 24 hr in moist chamber followed by incubation for 5 days in greenhouse conditions
Pyricularia oryzae [3] = assay: Antifungal activity against Magnaporthe oryzae infected on compound treated rice seedlings at 500 ppm incubated for 24 hr in moist chamber followed by incubation for 5 days in greenhouse conditions
Pyricularia oryzae [4] = assay: Antifungal activity against Magnaporthe oryzae infected on compound treated rice seedlings at 31.3 ppm incubated for 24 hr in moist chamber followed by incubation for 5 days in greenhouse conditions

Compound	Activity (Pyricularia oryzae [3]) [%]	other results
CCSC1=NS(=O)(=O)c2ccccc2N1C	90	Activity (Pyricularia oryzae [1]): 70%; Activity (Pyricularia oryzae [2]): 0%; Activity (Pyricularia oryzae [4]): 30%
Cc1ccc(S(=O)(=O)/N=C(/c2ccccc2)N(C)C)cc1	30	
Cc1ccc(/C(=N/S(=O)(=O)c2ccc(C)cc2)N(C)C)cc1	70	
COc1ccc(/C(=N/S(=O)(=O)c2ccc(C)cc2)N(C)C)cc1	70	
Cc1ccc(S(=O)(=O)/N=C(/c2ccc(N(C)C)cc2)N(C)C)cc1	0	
Cc1ccc(S(=O)(=O)/N=C(/c2ccc(Cl)cc2)N(C)C)cc1	0	
Cc1ccc(S(=O)(=O)/N=C(/c2ccc([N+](=O)[O-])cc2)N(C)C)cc1	0	
Cc1ccc(S(=O)(=O)/N=C(/c2ccc(Cl)c(Cl)c2)N(C)C)cc1	50	
COC(=O)c1ccccc1/C(=C/S(=O)(=O)c1ccc(C)cc1)N(C)C	0	
C/C(=N/S(=O)(=O)c1ccc(C)cc1)N(C)C	70	
CCC/C(=N/S(=O)(=O)c1ccc(C)cc1)N(C)C	70	
C/C=C/C(=N/S(=O)(=O)c1ccc(C)cc1)N(C)C	30	
Cc1ccc(S(=O)(=O)/N=C(/CC(C)Br)N(C)C)cc1 (stereo not drawn)	30	
CCCCCC/C(=N/S(=O)(=O)c1ccc(C)cc1)N(C)C	70	
Cc1ccc(S(=O)(=O)/N=C(/C2CCCCC2)N(C)C)cc1	50	
CO/C(=N/S(=O)(=O)c1ccc(C)cc1)N(C)C	0	
CS/C(=N/S(=O)(=O)c1ccc(C)cc1)N(C)C	30	
Cc1ccc(S(=O)(=O)N=C(N(C)C)N(C)C)cc1	30	
CCOC(=O)/C(=N/S(=O)(=O)c1ccc(C)cc1)N(C)C	50	
CCN(CC)/C(=N\S(=O)(=O)c1ccc(C)cc1)C(C)C	0	
CCN(CC)/C(CC(C)C)=N\S(=O)(=O)c1ccc(C)cc1	0	
CCN(CC)/C(=N\S(=O)(=O)c1ccc(C)cc1)C(C)(C)C	0	

Compound	Activity (Pyricularia oryzae [3]) [%]	other results
CCCC/C(=N/S(=O)(=O)c1ccc(C)cc1)N(CC)CC	70	
CCCCC/C(=N/S(=O)(=O)c1ccc(C)cc1)N(CC)CC	90	Activity (Pyricularia oryzae [1]): 90%; Activity (Pyricularia oryzae [2]): 30%; Activity (Pyricularia oryzae [4]): 70%
CCCCCC/C(=N/S(=O)(=O)c1ccc(C)cc1)N(CC)CC	97	Activity (Pyricularia oryzae [1]): 90%; Activity (Pyricularia oryzae [2]): 50%; Activity (Pyricularia oryzae [4]): 90%
CCN(CC)/C(=N\S(=O)(=O)c1ccc(C)cc1)C1CCCCC1	30	
CCCCCCC/C(=N/S(=O)(=O)c1ccc(C)cc1)N(CC)CC	90	Activity (Pyricularia oryzae [1]): 90%; Activity (Pyricularia oryzae [2]): 30%; Activity (Pyricularia oryzae [4]): 70%
CCCCCCCC/C(=N/S(=O)(=O)c1ccc(C)cc1)N(CC)CC	70	
CCCCCCCCC/C(=N/S(=O)(=O)c1ccc(C)cc1)N(CC)CC	50	
CCCCCCCCCC/C(=N/S(=O)(=O)c1ccc(C)cc1)N(CC)CC	50	
CCCCCCCCCCC/C(=N/S(=O)(=O)c1ccc(C)cc1)N(CC)CC	50	
CCCCCCCCCCCCC/C(=N/S(=O)(=O)c1ccc(C)cc1)N(CC)CC	30	
CCCCCCCCCCCCCCC/C(=N/S(=O)(=O)c1ccc(C)cc1)N(CC)CC	0	
CCCCCC/C(=N/S(=O)(=O)c1ccc(C)cc1)N(CCC)CCC	50	
CCCCCC/C(=N/S(=O)(=O)c1ccc(C)cc1)N(CCCC)CCCC	0	
CCCCCC/C(=N/S(=O)(=O)c1ccc(C)cc1)N1CCCCC1	50	
CCCCCC/C(=N/S(=O)(=O)c1ccc(C)cc1)N1CCCC1	30	
CCCCCC/C(=N/S(=O)(=O)c1ccc(C)cc1)N1CCN(C)CC1	30	
CCCCCC/C(=N/S(=O)(=O)c1ccc(C)cc1)N1CCOCC1	30	
CCCCCC/C(=N/S(=O)(=O)c1ccc(Cl)cc1)N(CC)CC	30	
CCCCCC/C(=N/S(=O)(=O)c1ccccc1Cl)N(CC)CC	0	
CCCCCC/C(=N/S(=O)(=O)c1ccccc1)N(CC)CC	30	
CC(C)OP(=O)(OC(C)C)SCc1ccccc1 [IPROBENFOS]	70	Activity (Pyricularia oryzae [1]): 50%; Activity (Pyricularia oryzae [2]): 0%; Activity (Pyricularia oryzae [4]): 30%
